Experimental data reported in patent US10278942B2 (PELOTON THERAPEUTICS, INC., priority 2015, dated 2019).
Like-named read-outs stand apart in the source and are kept apart here.

How the values were obtained:
[1] = system: 786-O cells; assay: VEGF ELISA Assay; assay type: cell-based; conditions: Homo sapiens, 786-0
Method: Each concentration was plated in duplicate. About 20 hours later, medium was removed by suction and each well was supplied with 180 μL of growth medium. About 20 μl freshly-made 10× compound stocks were added to each well. […] The EC50 was calculated by GraphPad Prism using the dose-response-inhibition (four parameter) equation. The cell-seeded plate was then subjected to CellTiter-Glo luminescence cell viability assay (Promega) by adding 50 μL of Celltiter Glo reagent into each well and shaking the plate for 8 minutes at 550 rpm (Thermomixer R, Eppendorf) then the luminescence signal immediately read in a plate reader (3 second delay, 0.5 second/well integration time, Synergy 2 multi Detection Microplate reader).

[2] = target: T1, HIF-2α HIS TAG-PASB Domain (Homo sapiens, UniProt Q99814); assay: HIF-2α Scintillation Proximity Assay (SPA); assay type: binding
T1 construct: 100 nM HIF-2α HIS TAG-PASB Domain
T1 sequence (Q99814 240-350 limits assumed): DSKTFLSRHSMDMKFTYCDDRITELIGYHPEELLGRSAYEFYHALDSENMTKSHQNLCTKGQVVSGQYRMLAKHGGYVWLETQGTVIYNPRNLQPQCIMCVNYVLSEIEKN
In short: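 IC50 values rest on percent inhibition, where the sample signal is scaled between high and low controls. Wells contain about 100 μL: compound dispensed as 2 μL of DMSO solution, 88 μL protein-probe mix and 10 μL of beads.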

[3] = system: 786-O-Hif-Luc cells; assay: Luciferase Assay (HIF responsive elements reporter)
Method: A pool of infected cells were then selected against 2 μg/mL of puromycin (P8833, Sigma) for 10 days followed by limited dilution to select single clones. […] Each concentration was tested in triplicate. After about 24 hours, luciferase activity was determined using ONE-Glo Luciferase Assay Reagent (E6110, Promega) following the manufacturer's recommended procedure. EC50 were calculated using Dotmatics software.

[4] = read-out: Scintillation Proximity Assay IC50
[5] = read-out: Mean Luciferase EC50 (nM), 786-O-Hif-Luc cells
[6] = read-out: Mean Luciferase EC50 (nM)

Row | SMILES | EC50 [1] | IC50 [2, 4] | EC50 [3, 5] | IC50 ([2]; Scintillation Proximity Assay IC50 (nM)) | EC50 [3, 6]
1 | O=S1(=O)c2ccc(Oc3cc(F)cc(Cl)c3)c(Br)c2C(O)C1(F)F (centres unmarked) [Compound 355] | 50 to 249 nM | – | – | < 50 nM | –
2 | N#Cc1cccc(Oc2ccc(S(=O)(=O)C(F)(F)F)c(C#N)c2Br)c1 [Compound 99] | 250 to 1000 nM | – | 250 to 1000 nM | – | –
3 | N#Cc1ccc(Oc2cc(F)cc(F)c2)c2c1[C@H](O)C(F)(F)C2 [Compound 67] | 50 to 249 nM | – | – | – | –
4 | O=S(=O)(c1ccc(Oc2cc(F)cc(Cl)c2)c2c1C(O)CC2)C(F)F (centres unmarked) [Compound 17] | 50 to 249 nM | – | – | – | –
5 | O=S(=O)(c1ccc(Oc2cc(F)cc(Cl)c2)c(Br)c1CO)C(F)(F)F [Compound 102] | 250 to 1000 nM | 50 to 249 nM | – | – | –
6 | N#Cc1cc(F)cc(Oc2ccc(S(=O)(=O)C(F)F)c3c2CC[C@H]3O)c1 [Compound 155] | 50 to 249 nM | – | – | – | 50 to 249 nM
7 | O=S(=O)(c1ccc(Oc2cc(F)cc(Cl)c2)c(C(F)F)c1)C(F)(F)F [Compound 124] | 250 to 1000 nM | – | – | – | 250 to 1000 nM
8 | CS(=O)(=O)c1ccc(Oc2cc(Cl)cc(C#N)c2)c2c1[C@H](O)C(F)(F)C2 [Compound 234] | 50 to 249 nM | – | – | – | < 50 nM
9 | N#Cc1cc(S(=O)(=O)C(F)F)ccc1Oc1cc(F)cc(Cl)c1 [Compound 133] | > 1000 nM | 250 to 1000 nM | – | – | –
10 | O=S(=O)(c1ccc(Oc2cc(F)cc(Cl)c2)c2c1[C@H](O)CC2)C(F)F [Compound 1] | 250 to 1000 nM | – | – | – | –
11 | O=S(=O)(c1ccc(Oc2cc(F)cc(Cl)c2)c(Cl)c1CO)C(F)F [Compound 41] | 250 to 1000 nM | – | – | – | 250 to 1000 nM
12 | O=S(=O)(c1ccc(Oc2cc(F)c(F)c3[nH]ncc23)c2c1C(O)C(F)(F)C2)C(F)(F)F (centres unmarked) [Compound 261] | – | 250 to 1000 nM | > 1000 nM | – | –
13 | O[C@@H]1CCc2c(Oc3cc(F)cc(F)c3)ccc(C(F)(F)F)c21 [Compound 58] | – | < 50 nM | 50 to 249 nM | – | –
14 | N#Cc1c(S(=O)(=O)C(F)F)ccc(Oc2cc(F)cc(Cl)c2)c1Cl [Compound 38] | – | 50 to 249 nM | 250 to 1000 nM | – | –
15 | O=C1c2c(S(=O)(=O)C(F)F)ccc(Oc3cncc(Cl)c3)c2CC1(F)F [Compound 182] | – | 250 to 1000 nM | > 1000 nM | – | –
16 | N#Cc1cccc(Oc2ccc(S(=O)(=O)C(F)F)c(CO)c2Br)c1 [Compound 81] | – | 250 to 1000 nM | 250 to 1000 nM | – | –
17 | O=C1c2c(S(=O)(=O)C(F)F)ccc(Oc3ccc(F)c(F)c3)c2CC1(F)F [Compound 195] | – | 50 to 249 nM | > 1000 nM | – | –
18 | O=S(=O)(c1ccc(Oc2cc(F)cc(Cl)c2)c(Br)c1Cl)C(F)(F)F [Compound 179] | > 1000 nM | < 50 nM | – | – | –
19 | N#Cc1c(S(=O)(=O)C(F)(F)F)ccc(Oc2cc(F)cc(Cl)c2)c1Cl [Compound 111] | – | < 50 nM | > 1000 nM | – | –
20 | N#Cc1c(Oc2cc(F)cc(Cl)c2)ccc(S(=O)(=O)C(F)F)c1CO [Compound 35] | – | > 1000 nM | > 1000 nM | – | –
21 | CS(=O)(=O)c1ccc(Oc2cc(F)cc(C#N)c2)c2c1C(=O)C(F)(Cl)C2 (centres unmarked) [Compound 269] | – | 250 to 1000 nM | > 1000 nM | – | –
22 | N#Cc1cncc(Oc2ccc(S(=O)(=O)C(F)(F)F)c3c2CCC3O)c1 (centres unmarked) [Compound 220] | – | 250 to 1000 nM | > 1000 nM | – | –

Further lines, with some results ahead:

Row | EC50 [1] | IC50 [2, 4] | EC50 [3, 5] | SMILES | IC50 ([2]; Scintillation Proximity Assay IC50 (nM)) | EC50 [3, 6]
23 | < 50 nM | < 50 nM | < 50 nM | O=S(=O)(c1ccc(OC2CCCCC2)c2c1C(O)C(F)(F)C2)C(F)(F)F (centres unmarked) [Compound 617] | – | –
24 | 50 to 249 nM | < 50 nM | 50 to 249 nM | O=S(=O)(c1ccc(Nc2cc(F)cc(F)c2)c2c1C(O)C(F)(F)C2)C(F)(F)F (centres unmarked) [Compound 507] | – | –
25 | > 1000 nM | 50 to 249 nM | – | N#Cc1cc(F)cc(Oc2ccc(S(=N)(=O)CF)c3c2CC(F)(F)[C@H]3O)c1 (some centres unmarked) [Compound 274] | – | –
26 | < 50 nM | < 50 nM | < 50 nM | N#Cc1cc(F)cc(Oc2ccc(C(F)(F)F)c3c2CC(F)(F)[C@H]3O)c1 [Compound 273] | – | –
27 | 50 to 249 nM | 50 to 249 nM | 50 to 249 nM | O=S(=O)(c1ccc(OC2COC2)c2c1[C@H](O)C(F)(F)C2)C(F)(F)F [Compound 784] | – | –
28 | < 50 nM | – | < 50 nM | C[C@@]1(O)c2c(ccc(Oc3cc(F)cc(C#N)c3)c2C#N)S(=O)(=O)C1(F)F [Compound 458] | – | –
29 | < 50 nM | – | < 50 nM | O[C@H]1c2c(C(F)(F)F)ncc(OC3CC(F)C3)c2C[C@H]1F (some centres unmarked) [Compound 478] | – | –
30 | < 50 nM | – | < 50 nM | CC1(O)c2c(ccc(Oc3cc(F)cc(C#N)c3)c2C#N)S(=O)(=O)C1(F)F (centres unmarked) [Compound 451] | – | –
31 | – | 250 to 1000 nM | > 1000 nM | N#CC1(CCOc2ccc(S(=O)(=O)C(F)(F)F)c3c2CC(F)(F)[C@H]3O)COC1 [Compound 749] | – | –
32 | – | < 50 nM | < 50 nM | O[C@H]1c2c(C(F)(F)F)ccc(OCCCF)c2[C@@H](F)C1(F)F [Compound 582] | – | –
33 | – | > 1000 nM | > 1000 nM | CS(=O)(=O)c1ccc(Oc2cncc(C#N)c2)c2c1[C@H](O)[C@H](F)C2 [Compound 313] | – | –
34 | – | 50 to 249 nM | 50 to 249 nM | CC(C)CCOc1ccc(S(=O)(=O)C(F)(F)F)c2c1CC(F)(F)[C@H]2O [Compound 717] | – | –
35 | – | < 50 nM | > 1000 nM | CCOc1ccc(S(C)(=O)=O)c2c1CC(F)(F)[C@H]2O [Compound 778] | – | –
36 | – | < 50 nM | < 50 nM | O=S(=O)(c1ccc(OCC(F)(F)F)c2c1[C@H](O)C(F)(F)C2)C(F)(F)F [Compound 675] | – | –
37 | – | > 1000 nM | > 1000 nM | N#Cc1cc(F)cc(Oc2ccc3c(c2C#N)C(N)C(F)(F)S3(=O)=O)c1 (centres unmarked) [Compound 464] | – | –
38 | – | 50 to 249 nM | > 1000 nM | N#CN=S1(=O)c2ccc(Oc3cc(F)cc(F)c3)c(Cl)c2[C@@H](O)C1(F)F (some centres unmarked) [Compound 412] | – | –
39 | – | 50 to 249 nM | 50 to 249 nM | N#CN=S(=O)(CF)c1ccc(Oc2cc(F)cc(C#N)c2)c2c1[C@H](O)C(F)(F)C2 (some centres unmarked) [Compound 285] | – | –
40 | – | > 1000 nM | > 1000 nM | O=S(=O)(c1ccc(OC2CCC(O)CC2)c2c1C(O)C(F)(F)C2)C(F)(F)F (centres unmarked) [Compound 618] | – | –
41 | – | > 1000 nM | > 1000 nM | NC1CS(=O)(=O)c2ccc(Oc3cc(F)cc(Cl)c3)c(C(F)F)c21 (centres unmarked) [Compound 363] | – | –
42 | – | 50 to 249 nM | 50 to 249 nM | O=S(=O)(c1ccc([C@@H]2CCC[C@@H](O)C2)c2c1[C@H](O)C(F)(F)C2)C(F)(F)F [Compound 480, (S)-2,2-difluoro-4-((1R,3R)-3-hydroxycyclohexyl)-7-((trifluoromethyl)sulfonyl)-2,3-dihydro-1H-inden-1-ol] | – | –
43 | – | 250 to 1000 nM | > 1000 nM | CS(=O)(=O)NCCOc1ccc(S(=O)(=O)C(F)(F)F)c2c1CC(F)(F)C2O (centres unmarked) [Compound 637] | – | –
44 | – | 250 to 1000 nM | > 1000 nM | O=S(=O)(c1ccc(OC2CCC2)c2c1C(O)CC2)C(F)(F)F (centres unmarked) [Compound 601] | – | –
45 | – | < 50 nM | 250 to 1000 nM | CC(Oc1ccc(S(C)(=O)=O)c2c1[C@@H](F)C(F)(F)[C@H]2O)C(F)F (some centres unmarked) [Compound 774] | – | –
46 | – | 50 to 249 nM | 50 to 249 nM | N#Cc1cncc(Nc2ccc(S(=O)(=O)C(F)(F)F)c3c2CC(F)(F)[C@H]3O)c1 [Compound 488, (S)-5-((2,2-difluoro-1-hydroxy-7-((trifluoromethyl)sulfonyl)-2,3-dihydro-1H-inden-4-yl)amino)nicotinonitrile] | – | –
47 | – | > 1000 nM | > 1000 nM | N#Cc1cc(F)cc(Oc2ccc(S(=O)(=O)C(F)(F)F)c3c2[C@@H](N)C[C@H]3O)c1 [Compound 279] | – | –
48 | – | < 50 nM | 50 to 249 nM | CO[C@H]1C[C@@H](Oc2ccc(S(=O)(=O)C(F)(F)F)c3c2CC(F)(F)[C@H]3O)C1 [Compound 715] | – | –
49 | – | < 50 nM | 250 to 1000 nM | O=S1(=O)c2ccc(Oc3cccc4sccc34)c(C(F)F)c2C(O)C1(F)F (centres unmarked) [Compound 440] | – | –
50 | – | 250 to 1000 nM | > 1000 nM | O=S(=O)(c1ccc(C2=CC(O)CCC2)c2c1[C@H](O)C(F)(F)C2)C(F)(F)F (stereo partly drawn) [Compound 481, (1S)-2,2-difluoro-4-(3-hydroxycyclohex-1-en-1-yl)-7-((trifluoromethyl)sulfonyl)-2,3-dihydro-1H-inden-1-ol] | – | –
